Measured values: article PMC11184554, “Nature-Inspired Gallinamides Are Potent Antischistosomal Agents: Inhibition of the Cathepsin B1 Protease Target and Binding Mode Analysis” (ACS Infectious Diseases, 2024)
Where two headings read alike, the source gives them in different places.

Experiments:
[1] = tested on: ex vivo adult mixed sex S. mansoni; experiment: Phenotypic screen with ex vivo adult schistosomes; format: cell-based; settings: for adult severity score: scale 0 to 4
Protocol: In the next step, the bioactive compounds gallinamide A, 1, 6, and 9 (selected for structural analyses (see below)) were phenotypically screened against adult schistosomes. Experiments were performed at 1, 2, 5, and 10 μM with ex vivo adult mixed sex S. mansoni, and the phenotypes observed over 48 h were assigned severity scores ranging from 0 to 4 (Table 3 and Table S3).
For adult schistosomes, screens were performed in 24-well plates containing four male worms and one to two female worms per well in a final volume of 2 mL of complete Basch medium. Compounds were added at the final concentrations between 1 and 10 μM. Incubations were maintained for 48 h at 37 °C under 5% CO2. Afterward, the adult worms were collected, washed in RPMI 1640 medium, and used for soluble protein extract preparation.
A constrained nomenclature of “descriptors”[39],[42] was used to record the multiple and dynamic changes in movement, shape, and translucence that the schistosome parasite is capable of (Table S1 for NTS and Table S3 for adults). These descriptors were then converted into an ordinal “severity score” system ranging from 0 (no effect) to 4 (maximum effect), which allows for the relative comparison of compound effects.

[2] = Cytotoxicity, CellTiter Glo 2.0; format: cell-based; settings: human, ± SD; for viability at 72 h, 1 µM: panel A, read-out: Cell line viability after 72 h (%); for viability at 24 h, 10 µM / viability at 48 h, 10 µM / viability at 72 h, 10 µM: panel B, read-out: Cell line viability (%) after treatment with 10 µM compound
Protocol: Table S4. Cytotoxicity of gallinamides.
Cytotoxicity of gallinamide A and compounds 1, 6, and 9 was tested with four human cell lines and expressed as % viability vs. untreated cells. Cells were treated with the indicated compound concentrations for 72 h (A) or with 10 µM compounds for the indicated time (B) and assayed using CellTiter Glo 2.0 (Promega) according to the manufacturer’ s protocol. Cytotoxicity was expressed as percent viability compared to untreated control cells; the standard deviation of the mean of quadruplicate readings is shown. Cell line abbreviations: HL-60, human promyelocytic leukemia; HeLa, human cervical carcinoma; HepG2, human hepatocellular carcinoma; NHDF, normal human dermal fibroblasts.
Cell line viability after 72 h (%)
Cell line HL-60 HeLa HepG2 NHDF
Cell line viability (%) after treatment w ith 10 µM compound

In the case of `CCC(C)C(C(=O)OC(CC(C)C)C(=O)NC(CC(C)C)C(=O)NC(C)C=CC(=O)N1C(=O)C=C(OC)C1CC(C)C)N(C)C` (stereo not drawn) [compound 1], the adult phenotype descriptors ([1]; 2 h, 1 µM) is reported as “N”, the adult severity score ([1]; 2 h, 1 μM) is reported as 0 and the adult phenotype descriptors ([1]; 2 h, 2 µM) is reported as “N”. For the same compound, the adult severity score ([1]; 2 h, 2 μM) was 0, the adult phenotype descriptors ([1]; 2 h, 5 µM) was “N” and the adult severity score ([1]; 2 h, 5 μM) was 0. For the same compound, the adult phenotype descriptors ([1]; 2 h, 10 µM) was “N”, the adult severity score ([1]; 2 h, 10 μM) was 0 and the adult phenotype descriptors ([1]; 6 h, 1 µM) was “N”. The adult severity score ([1]; 6 h, 1 μM) was 0, the adult phenotype descriptors ([1]; 6 h, 2 µM) was “N” and the adult severity score ([1]; 6 h, 2 μM) was 0. For the same compound, the adult phenotype descriptors ([1]; 6 h, 5 µM) was “N”, the adult severity score ([1]; 6 h, 5 μM) was 0 and the adult phenotype descriptors ([1]; 6 h, 10 µM) was “unc”. For the same compound, the adult severity score ([1]; 6 h, 10 μM) was 1, the adult phenotype descriptors ([1]; 24 h, 1 µM) was “N” and the adult severity score ([1]; 24 h, 1 μM) was 0. The adult phenotype descriptors ([1]; 24 h, 2 µM) was “N”, the adult severity score ([1]; 24 h, 2 μM) was 0 and the adult phenotype descriptors ([1]; 24 h, 5 µM) was “N”. For the same compound, the adult severity score ([1]; 24 h, 5 μM) was 0, the adult severity score ([1]; 24 h, 10 μM) was 4 and the adult phenotype descriptors ([1]; 48 h, 1 µM) was “N”. The adult severity score ([1]; 48 h, 1 μM) was 0, the adult phenotype descriptors ([1]; 48 h, 2 µM) was “unc, dark” and the adult severity score ([1]; 48 h, 2 μM) was 2. For the same compound, the adult phenotype descriptors ([1]; 48 h, 5 µM) was “unc, dark”, the adult severity score ([1]; 48 h, 5 μM) was 2 and the adult severity score ([1]; 48 h, 10 μM) was 4.
For `COC1=CC(=O)N(C(=O)/C=C/[C@H](C)NC(=O)[C@H](CC(C)C)NC(=O)[C@H](CC(C)C)OC(=O)[C@H](Cc2ccccc2)N(C)C)[C@H]1Cc1ccccc1` [compound 6], the adult phenotype descriptors ([1]; 2 h, 1 µM) was “N”, the adult severity score ([1]; 2 h, 1 μM) was 0 and the adult phenotype descriptors ([1]; 2 h, 2 µM) was “N”. The adult severity score ([1]; 2 h, 2 μM) was 0, the adult phenotype descriptors ([1]; 2 h, 5 µM) was “unc” and the adult severity score ([1]; 2 h, 5 μM) was 1. The adult phenotype descriptors ([1]; 2 h, 10 µM) was “unc, on sides”, the adult severity score ([1]; 2 h, 10 μM) was 2 and the adult phenotype descriptors ([1]; 6 h, 1 µM) was “N”. For the same compound, the adult severity score ([1]; 6 h, 1 μM) was 0, the adult phenotype descriptors ([1]; 6 h, 2 µM) was “N” and the adult severity score ([1]; 6 h, 2 μM) was 0. For the same compound, the adult phenotype descriptors ([1]; 6 h, 5 µM) was “unc”, the adult severity score ([1]; 6 h, 5 μM) was 1 and the adult phenotype descriptors ([1]; 6 h, 10 µM) was “unc, on sides”. For the same compound, the adult severity score ([1]; 6 h, 10 μM) was 2, the adult phenotype descriptors ([1]; 24 h, 1 µM) was “N” and the adult severity score ([1]; 24 h, 1 μM) was 0. For the same compound, the adult phenotype descriptors ([1]; 24 h, 2 µM) was “N”, the adult severity score ([1]; 24 h, 2 μM) was 0 and the adult severity score ([1]; 24 h, 5 μM) was 2. The adult severity score ([1]; 24 h, 10 μM) was 4, the adult phenotype descriptors ([1]; 48 h, 1 µM) was “N” and the adult severity score ([1]; 48 h, 1 μM) was 0. For the same compound, the adult phenotype descriptors ([1]; 48 h, 2 µM) was “dark”, the adult severity score ([1]; 48 h, 2 μM) was 1 and the adult severity score ([1]; 48 h, 5 μM) was 4. It also gave an adult severity score ([1]; 48 h, 10 μM) of 4, a viability at 72 h, 1 µM ([2]; HL-60, vs untreated cells) of 100 ± 5% and a viability at 72 h, 1 µM ([2]; HeLa) of 93 ± 4%. For the same compound, the viability at 72 h, 1 µM ([2]; HepG2) was 104 ± 3%, the viability at 72 h, 1 µM ([2]; NHDF) was 99 ± 3% and the viability at 24 h, 10 µM ([2]; HL-60) was 31 ± 1%. The viability at 48 h, 10 µM ([2]; HL-60) was 11 ± 2%, the viability at 72 h, 10 µM ([2]; HL-60) was 11% and the viability at 24 h, 10 µM ([2]; HeLa) was 45 ± 1%. The viability at 48 h, 10 µM ([2]; HeLa) was 13 ± 1%, the viability at 72 h, 10 µM ([2]; HeLa) was 13 ± 1% and the viability at 24 h, 10 µM ([2]; HepG2) was 61 ± 1%. The viability at 48 h, 10 µM ([2]; HepG2) was 14 ± 1%, the viability at 72 h, 10 µM ([2]; HepG2) was 13 ± 1% and the viability at 24 h, 10 µM ([2]; NHDF) was 100 ± 2%. The viability at 48 h, 10 µM ([2]; NHDF) was 35 ± 3% and the viability at 72 h, 10 µM ([2]; NHDF) was 13 ± 13%.
For `CCC(C)C(C(=O)OC(CC(C)C)C(=O)NC(CC(C)C)C(=O)NC(C)C=CC(=O)N1C(=O)C=C(OC)C1Cc1ccccc1)N(C)C` (stereo not drawn) [compound 9], the adult phenotype descriptors ([1]; 2 h, 1 µM) was “N”, the adult severity score ([1]; 2 h, 1 μM) was 0 and the adult phenotype descriptors ([1]; 2 h, 2 µM) was “N”. For the same compound, the adult severity score ([1]; 2 h, 2 μM) was 0, the adult phenotype descriptors ([1]; 2 h, 5 µM) was “unc” and the adult severity score ([1]; 2 h, 5 μM) was 1. The adult phenotype descriptors ([1]; 2 h, 10 µM) was “unc”, the adult severity score ([1]; 2 h, 10 μM) was 1 and the adult phenotype descriptors ([1]; 6 h, 1 µM) was “N”. The adult severity score ([1]; 6 h, 1 μM) was 0, the adult phenotype descriptors ([1]; 6 h, 2 µM) was “N” and the adult severity score ([1]; 6 h, 2 μM) was 0. For the same compound, the adult phenotype descriptors ([1]; 6 h, 5 µM) was “unc”, the adult severity score ([1]; 6 h, 5 μM) was 1 and the adult phenotype descriptors ([1]; 6 h, 10 µM) was “unc, on sides”. The adult severity score ([1]; 6 h, 10 μM) was 2, the adult phenotype descriptors ([1]; 24 h, 1 µM) was “N” and the adult severity score ([1]; 24 h, 1 μM) was 0. For the same compound, the adult phenotype descriptors ([1]; 24 h, 2 µM) was “N”, the adult severity score ([1]; 24 h, 2 μM) was 0 and the adult phenotype descriptors ([1]; 24 h, 5 µM) was “unc, Dark”. For the same compound, the adult severity score ([1]; 24 h, 5 μM) was 2, the adult severity score ([1]; 24 h, 10 μM) was 4 and the adult phenotype descriptors ([1]; 48 h, 1 µM) was “N”. For the same compound, the adult severity score ([1]; 48 h, 1 μM) was 0, the adult phenotype descriptors ([1]; 48 h, 2 µM) was “unc, dark” and the adult severity score ([1]; 48 h, 2 μM) was 2. The adult severity score ([1]; 48 h, 5 μM) was 4 and the adult severity score ([1]; 48 h, 10 μM) was 4.
With `CC[C@H](C)[C@@H](C(=O)O[C@@H](CC(C)C)C(=O)N[C@@H](CC(C)C)C(=O)N[C@@H](C)/C=C/C(=O)N1C(=O)C=C(OC)[C@@H]1C)N(C)C` [gallinamide A] the adult phenotype descriptors ([1]; 2 h, 1 µM) was “N”, the adult severity score ([1]; 2 h, 1 μM) was 0 and the adult phenotype descriptors ([1]; 2 h, 2 µM) was “N”. The adult severity score ([1]; 2 h, 2 μM) was 0, the adult phenotype descriptors ([1]; 2 h, 5 µM) was “N” and the adult severity score ([1]; 2 h, 5 μM) was 0. The adult phenotype descriptors ([1]; 2 h, 10 µM) was “N”, the adult severity score ([1]; 2 h, 10 μM) was 0 and the adult phenotype descriptors ([1]; 6 h, 1 µM) was “N”. For the same compound, the adult severity score ([1]; 6 h, 1 μM) was 0, the adult phenotype descriptors ([1]; 6 h, 2 µM) was “N” and the adult severity score ([1]; 6 h, 2 μM) was 0. For the same compound, the adult phenotype descriptors ([1]; 6 h, 5 µM) was “N”, the adult severity score ([1]; 6 h, 5 μM) was 0 and the adult phenotype descriptors ([1]; 6 h, 10 µM) was “N”. The adult severity score ([1]; 6 h, 10 μM) was 0, the adult phenotype descriptors ([1]; 24 h, 1 µM) was “N” and the adult severity score ([1]; 24 h, 1 μM) was 0. The adult phenotype descriptors ([1]; 24 h, 2 µM) was “N”, the adult severity score ([1]; 24 h, 2 μM) was 0 and the adult phenotype descriptors ([1]; 24 h, 5 µM) was “N”. The adult severity score ([1]; 24 h, 5 μM) was 0, the adult phenotype descriptors ([1]; 24 h, 10 µM) was “unc” and the adult severity score ([1]; 24 h, 10 μM) was 1. The adult phenotype descriptors ([1]; 48 h, 1 µM) was “N”, the adult severity score ([1]; 48 h, 1 μM) was 0 and the adult phenotype descriptors ([1]; 48 h, 2 µM) was “S, dark”. The adult severity score ([1]; 48 h, 2 μM) was 2, the adult phenotype descriptors ([1]; 48 h, 5 µM) was “S, dark” and the adult severity score ([1]; 48 h, 5 μM) was 2. For the same compound, the adult severity score ([1]; 48 h, 10 μM) was 3, the viability at 72 h, 1 µM ([2]; HL-60, vs untreated cells) was 100 ± 6% and the viability at 72 h, 1 µM ([2]; HeLa) was 96 ± 4%. It also gave a viability at 72 h, 1 µM ([2]; HepG2) of 96 ± 3%, a viability at 72 h, 1 µM ([2]; NHDF) of 105 ± 6% and a viability at 24 h, 10 µM ([2]; HL-60) of 99 ± 5%. The viability at 48 h, 10 µM ([2]; HL-60) was 77 ± 3%, the viability at 72 h, 10 µM ([2]; HL-60) was 73 ± 5% and the viability at 24 h, 10 µM ([2]; HeLa) was 77 ± 4%. It also gave a viability at 48 h, 10 µM ([2]; HeLa) of 73 ± 3%, a viability at 72 h, 10 µM ([2]; HeLa) of 88 ± 6% and a viability at 24 h, 10 µM ([2]; HepG2) of 93 ± 6%. It also gave a viability at 48 h, 10 µM ([2]; HepG2) of 98 ± 7%, a viability at 72 h, 10 µM ([2]; HepG2) of 94 ± 11% and a viability at 24 h, 10 µM ([2]; NHDF) of 80 ± 2%. It also gave a viability at 48 h, 10 µM ([2]; NHDF) of 89 ± 3% and a viability at 72 h, 10 µM ([2]; NHDF) of 94 ± 94%.
